# Measurements published in patent US20020010201A1 (priority 1999, published 2002).
# What was measured:
# [1] = test system: Restless Legs Syndrome patients; conditions: cited from earlier work; for effectiveness in RLS: short-term therapy trials of dopamine agonists
# patients with RLS = test: Treatment of 2 patients with RLS (therapeutic history, monotherapies and combination therapy of pramipexole and clonidine)
# Procedure: 1. […] The clonidine was also initially prescribed in a single dose of 0.075 mg two hours before bedtime and increased by 0.075 mg at intervals of 3 days.
# 2. Treatment with a Combination Therapy of Clonidine and Pramipexole After slowly bringing the clonidine therapy to a complete halt and after a treatment-free period of about 1 week, both patients were treated with a combination of 0.088 mg of pramipexole and 0.075 mg of clonidine. […] After 7 days the dosage of pramipexole had been increased to 0.18 mg and the dosage of clonidine to 0.15 mg, two hours before going to sleep.
# [2] = clonidine monotherapy, single dose before bedtime, 0.225 mg (male) / 0.45 mg (female)
compound,measurement,setting,value
"CCCN[C@H]1CCc2nc(N)sc2C1 [pramipexole, (S)-2-amino-6-n-propylamino-4,5,6,7-tetrahydro-benzothiazole]",effectiveness in RLS,[1],found to be effective
same,symptoms,"patients with RLS; pramipexole monotherapy, 0.088 mg two hours before bedtime, increased to 0.36 mg (male) / 0.27 mg (female) daily, no difference from earlier therapy",symptoms certainly improved
bromocryptine,effectiveness in RLS,[1],found to be effective
C=CCN1C[C@H](C(=O)N(CCCN(C)C)C(=O)NCC)C[C@@H]2c3cccc4[nH]cc(c34)C[C@H]21 [cabergoline],effectiveness in RLS,[1],found to be effective
CCCN(CCC)CCc1cccc2c1CC(=O)N2 [ropinirol],effectiveness in RLS,[1],found to be effective
NC(=O)N1c2ccccc2C=Cc2ccccc21 [Carbamazepine],relief from the complaint,[1]; a few partly open trials,only partial relief from the complaint
N[C@@H](Cc1ccc(O)c(O)c1)C(=O)O [L-DOPA],"disadvantage of therapy (loss of effectiveness, rebound, augmentation)",[1]; in vivo,effectiveness declines and/or there is a shift of the RLS problems to the morning (rebound) or afternoon (augmentation)
same,alleviation of the complaint,"[1]; long-term therapy, with improvement in quality of life and sleep",significant alleviation of the complaint
same,augmentation,"patients with RLS; human, in vivo",typical augmentation during the day
"Clc1cccc(Cl)c1NC1=NCCN1 [clonidine, 2-(2,6-dichloroanilino)-4,5-dihydroimidazole]","perceived symptoms such as paresthesia, compulsive movement and tiredness during the day","[1]; 4 open trials, 2 double-blind placebo-controlled trials, single case study, daily doses 0.1-0.9 mg",(statistically significant) reduction in perceived symptoms
same,sleep latency (polysomnographic),[1]; daily doses 0.1-0.9 mg,shortened
same,"quality of sleep, frequency of waking or periodic leg movements in sleep (PLMS)","[1]; polysomnographic, daily doses 0.1-0.9 mg",not affected
same,compulsive movements,patients with RLS; [2],had also improved
same,paresthesia,patients with RLS; [2],felt hardly any paresthesia
same,quality of sleep and number of times they woke during the night,patients with RLS; [2],had not changed
CCCN1C[C@H](CSC)C[C@@H]2c3cccc4[nH]cc(c34)C[C@H]21 [pergolide],effectiveness in RLS,[1],found to be effective
same,side effects preventing further dose increase,patients with RLS; previous therapy of the 2 RLS patients,"side effects such as nausea, gastrointestinal problems and dizziness"
CC(C)C[C@H]1C(=O)N2CCC[C@H]2[C@]2(O)O[C@](NC(=O)[C@@H]3C[C@@H]4c5cccc6[nH]cc(c56)C[C@H]4N(C)C3)(C(C)C)C(=O)N12 [alphadihydroergocryptine],effectiveness in RLS,[1],found to be effective
CCN(CC)C(=O)N[C@H]1C=C2c3cccc4[nH]cc(c34)C[C@H]2N(C)C1 [lisuride],effectiveness in RLS,[1],found to be effective
Cc1nnc2n1-c1sc(Br)cc1C(c1ccccc1Cl)=NC2 [Brotizolam],falling asleep and sleeping through,"patients with RLS; previous therapy, prescribed for limited time only",improved the falling asleep and sleeping through
